# Test results: patent US20110097274A1, “Carbon-11 and fluorine-18 labeled radioligands for positron emission tomography (PET) imaging for the brain serotonin transporters” (priority 2002, published 2011)
# Where “and” joins values, the source holds several entries; their conditions need not be identical. Identical values can stand only once. Like-named read-outs stand apart in the source and are kept apart here.
# Tested on: SERT
# Assay: Baboon PET imaging: brain uptake, kinetic analysis and SERT parameters
# Format: in vivo
# Details: for Kp: male, baboon, brain, intravenous
# Description: PET imaging protocol: PET experiments (n=20) were performed at Columbia University. Two adult male baboons (baboon A and B) were studied twice with each of the 5 radioligands (4 experiments per radioligand). All experiments took place within a 9-month period. Baboons A and B were 31 kg and 21 kg in weight at the beginning of the experimental period and 28 and 22 kg at the end, respectively. Test and retest experiments with the same radioligand were obtained on different days, with an average interval of 117±53 days.
# Experiments were performed according to protocols approved by the Columbia-Presbyterian Medical Center Institutional Animal Care and Use Committee. Fasted animals were immobilized with ketamine (10 mg/kg i.m.), and anesthetized with 1.8% isoflurane via an endotracheal tube. Vital signs were monitored every 10 minutes and the temperature was kept constant at 37° C. with heated water blankets. An i.v. perfusion line was used for hydration and injection of radioligands and nonradioactive drugs. A catheter was inserted in a femoral artery for arterial blood sampling. Head was positioned at the center of the field of view as defined by imbedded laser lines. PET imaging was performed with the ECAT EXACT HR+PET scanner (Siemens/CTI, Knoxville, Tenn.). In 3D mode, this camera provides an in-plane resolution of 4.3 mm, 4.5 mm, 5.4 mm and 8.0 mm full width at half maximum (FWHM) at a distance of 0, 1, 10 and 20 cm from the center of the field of view, respectively (Brix et al., 1997). A 15 minute transmission scan was obtained prior to radioligand injection for attenuation correction. Activity was injected i.v. over 30 seconds. […] Emission data was collected in the 3D mode for 91 minutes as 21 successive frames of increasing duration (6*10 seconds, 2*1 minutes, 4*2 minutes, 2*5 minutes, and 7*10 minutes).
# Image analysis: A Magnetic Resonance Image (MRI) of each baboon's brain was obtained for the purpose of identifying the regions of interest (ROI) (T1-weighted axial MRI sequence, acquired parallel to the anterior-posterior commissure, TR 34 msec, TE 5 msec, flip angle of 45 degrees, slice thickness is 1.5 mm, zero gap, matrix 1.5 mm×1 mm×1 mm voxels). The following regions were drawn on the MR images: cerebellum, midbrain, thalamus, striatum, hippocampus, temporal cortex, cingulate cortex and occipital cortex.
# PET emission data were attenuation-corrected using the transmission scan, and frames were reconstructed using a Shepp filter (cutoff 0.5 cycles/projection rays). Reconstructed image files were then processed using the image analysis software MEDx (Sensor Systems, Inc., Sterling, Va.). An image was created by summing all the frames, and this summed image was used to define the registration parameters with the MR image, using between-modality automated image registration (AIR) algorithm (Woods et al., 1993). Registration parameters were then applied to the individual frames for registration to the MR data set. Regional boundaries were transferred to the individual registered PET frames, and time-activity curves were measured and decay-corrected. Right and left regions were averaged. For a given animal, the same regions were used for all radioligands.
# Brain uptake: Total brain uptake was expressed as percentage of the injected dose per gram of tissue (% ID g^−1) in a region encompassing the entire brain. Regional peak time was defined as the mid-time of the frame associated with the highest activity value. To estimate the degree of wash-out from the brain captured during the scan interval (91 minutes), the decrease in activity from the peak frame to the last frame was calculated and expressed in percentage of the peak activity.
# Kinetic analysis: Regional total distribution volumes (VT, mL g^−1) were derived with kinetic analysis of the regional time-activity curves, using the arterial plasma concentrations as input function. […]
# [1] = BP = VT ROI − VT CER, baboons, mean ± SD of four experiments
# [2] = Mean ± SD of four experiments in two baboons
# [3] = baboon A, experiments of FIGS. 5-9 (FIG. 10)
# [4] = baboons, mean ± SD of four experiments
# [5] = last scan 90 minutes, baboons, mean ± SD of four experiments
# [6] = one-tissue compartment model, baboons, mean ± SD of four experiments
smiles,measurement,setting,value
CN(C)Cc1ccccc1Sc1ccc(I)cc1N [[^11C]ADAM],Binding potential Cingulate Cortex,[1],8.8 ± 3.9 mL/g
same,Binding potential Hippocampus,[1],12.6 ± 3.3 mL/g
same,Binding potential Midbrain,[1],28.5 ± 6.7 mL/g
same,Binding potential Occipital Cortex,[1],4.9 ± 3.8 mL/g
same,Binding potential Striatum,[1],17.8 ± 3.7 mL/g
same,Binding potential Temporal Cortex,[1],10.1 ± 5.0 mL/g
same,Binding potential Thalamus,[1],31.4 ± 6.1 mL/g
same,Equilibrium specific to non-specific partition coefficient (V3″) Cingulate Cortex,"Baboon A, single experiment",0.28 and 0.43
same,Equilibrium specific to non-specific partition coefficient (V3″) Hippocampus,"Baboon A, single experiment",0.41 and 0.49
same,Equilibrium specific to non-specific partition coefficient (V3″) Midbrain,"Baboon A, single experiment",1.04 and 0.81
same,Equilibrium specific to non-specific partition coefficient (V3″) Striatum,"Baboon A, single experiment",0.65 and 0.59
same,Equilibrium specific to non-specific partition coefficient (V3″) Temporal Cortex,"Baboon A, single experiment",0.41 and 0.47
same,Equilibrium specific to non-specific partition coefficient (V3″) Thalamus,"Baboon A, single experiment",1.18 and 0.92
same,Equilibrium specific to non-specific partition coefficient (V3″) Cingulate Cortex,"Baboon B, single experiment",0.23 and 0.26
same,Equilibrium specific to non-specific partition coefficient (V3″) Hippocampus,"Baboon B, single experiment",0.38 and 0.47
same,Equilibrium specific to non-specific partition coefficient (V3″) Midbrain,"Baboon B, single experiment",0.91 and 1.25
same,Equilibrium specific to non-specific partition coefficient (V3″) Occipital Cortex,"Baboon B, single experiment",0.07 and 0.12
same,Equilibrium specific to non-specific partition coefficient (V3″) Striatum,"Baboon B, single experiment",0.56 and 0.68
same,Equilibrium specific to non-specific partition coefficient (V3″) Temporal Cortex,"Baboon B, single experiment",0.18 and 0.30
same,Equilibrium specific to non-specific partition coefficient (V3″) Thalamus,"Baboon B, single experiment",1.05 and 1.26
same,Equilibrium specific to non-specific partition coefficient (V3″) Cingulate Cortex,[2],0.30 ± 0.09
same,Equilibrium specific to non-specific partition coefficient (V3″) Hippocampus,[2],0.44 ± 0.05
same,Equilibrium specific to non-specific partition coefficient (V3″) Midbrain,[2],1.00 ± 0.19
same,Equilibrium specific to non-specific partition coefficient (V3″) Occipital Cortex,[2],0.16 ± 0.11
same,Equilibrium specific to non-specific partition coefficient (V3″) Striatum,[2],0.62 ± 0.06
same,Equilibrium specific to non-specific partition coefficient (V3″) Temporal Cortex,[2],0.34 ± 0.13
same,Equilibrium specific to non-specific partition coefficient (V3″) Thalamus,[2],1.10 ± 0.15
same,Thalamus to cerebellum ratio equal to true equilibrium ratio (V3″+1),[3],1.92
same,Time at which measured thalamus to cerebellum ratio equals the true equilibrium ratio (estimate of peak specific binding),[3],55 min
same,"K1, average of all regions and all animals",baboons,1.09 ± 0.35 mL/g/min
same,"k2, average of all regions and all animals",baboons,0.028 ± 0.011 min⁻¹
same,V3″ expressed in percentage of [^11C]McN 5652 V3″,"baboons, combining all regions",128±24%
same,Mean regional peak uptake time,"baboons, mean of all regions",37 ± 18 min
same,Mean regional wash-out (% decrease between peak time and last scan),"baboons, mean of all regions",25±14%
same,Cingulate Cortex to cerebellum activity ratio at 90 minutes,[4],1.29 ± 0.07
same,Hippocampus to cerebellum activity ratio at 90 minutes,[4],1.45 ± 0.06
same,Midbrain to cerebellum activity ratio at 90 minutes,[4],1.96 ± 0.18
same,Occipital Cortex to cerebellum activity ratio at 90 minutes,[4],1.14 ± 0.09
same,Regional uptake peak time Cerebellum,[4],14 ± 5 min
same,Regional uptake peak time Cingulate Cortex,[4],32 ± 17 min
same,Regional uptake peak time Hippocampus,[4],46 ± 8 min
same,Regional uptake peak time Midbrain,[4],49 ± 22 min
same,Regional uptake peak time Occipital Cortex,[4],30 ± 18 min
same,Regional uptake peak time Striatum,[4],39 ± 15 min
same,Regional uptake peak time Temporal Cortex,[4],39 ± 13 min
same,Regional uptake peak time Thalamus,[4],51 ± 24 min
same,Striatum to cerebellum activity ratio at 90 minutes,[4],1.65 ± 0.13
same,Temporal Cortex to cerebellum activity ratio at 90 minutes,[4],1.33 ± 0.08
same,Thalamus to cerebellum activity ratio at 90 minutes,[4],2.05 ± 0.23
same,Total brain uptake at 45 min,"baboons, region encompassing the entire brain",0.017±0.001 % ID g^−1
same,"Regional activity wash-out: % decrease from peak to last scan, Cerebellum",[5],45 ± 8%
same,"Regional activity wash-out: % decrease from peak to last scan, Cingulate Cortex",[5],34 ± 7%
same,"Regional activity wash-out: % decrease from peak to last scan, Hippocampus",[5],15 ± 6%
same,"Regional activity wash-out: % decrease from peak to last scan, Midbrain",[5],10 ± 7%
same,"Regional activity wash-out: % decrease from peak to last scan, Occipital Cortex",[5],36 ± 10%
same,"Regional activity wash-out: % decrease from peak to last scan, Striatum",[5],23 ± 6%
same,"Regional activity wash-out: % decrease from peak to last scan, Temporal Cortex",[5],25 ± 8%
same,"Regional activity wash-out: % decrease from peak to last scan, Thalamus",[5],12 ± 5%
same,Kp,"cingulate cortex, one-tissue compartment model, baboons, mean ± SD of four experiments, read-out: VT Cingulate Cortex",37.3 ± 8.5
same,Kp,"hippocampus, one-tissue compartment model, baboons, mean ± SD of four experiments, read-out: VT Hippocampus",41.1 ± 8
same,Kp,"midbrain, one-tissue compartment model, baboons, mean ± SD of four experiments, read-out: VT Midbrain",57 ± 10.2
same,Kp,"occipital cortex, one-tissue compartment model, baboons, mean ± SD of four experiments, read-out: VT Occipital Cortex",33.5 ± 8.3
same,Kp,"striatum, one-tissue compartment model, baboons, mean ± SD of four experiments, read-out: VT Striatum",46.3 ± 8.4
same,Kp,"temporal cortex, one-tissue compartment model, baboons, mean ± SD of four experiments, read-out: VT Temporal Cortex",38.6 ± 9.7
same,Kp,"thalamus, one-tissue compartment model, baboons, mean ± SD of four experiments, read-out: VT Thalamus",59.9 ± 10.1
same,K1 Cerebellum,[6],1.23 ± 0.44 mL/g/min
same,K1 Cingulate Cortex,[6],1.20 ± 0.38 mL/g/min
same,K1 Hippocampus,[6],0.85 ± 0.32 mL/g/min
same,K1 Midbrain,[6],1.00 ± 0.35 mL/g/min
same,K1 Occipital Cortex,[6],1.12 ± 0.33 mL/g/min
same,K1 Striatum,[6],1.15 ± 0.45 mL/g/min
same,K1 Temporal Cortex,[6],1.02 ± 0.37 mL/g/min
same,K1 Thalamus,[6],1.14 ± 0.32 mL/g/min
same,K2 Cerebellum,[6],0.043 ± 0.012 min⁻¹
same,K2 Cingulate Cortex,[6],0.033 ± 0.009 min⁻¹
same,K2 Hippocampus,[6],0.021 ± 0.006 min⁻¹
same,K2 Midbrain,[6],0.018 ± 0.006 min⁻¹
same,K2 Occipital Cortex,[6],0.034 ± 0.010 min⁻¹
same,K2 Striatum,[6],0.025 ± 0.008 min⁻¹
same,K2 Temporal Cortex,[6],0.027 ± 0.009 min⁻¹
same,K2 Thalamus,[6],0.020 ± 0.006 min⁻¹
same,"VT Cerebellum (VT CER, nonspecific distribution volume)",[6],28.5 ± 4.8 mL/g
